pIC50: −log10 of the molar value.
test system: BSR cells, Bluetongue virus CPE, ATP luminescence, 72 h; assay: antiviral protection against BTV-induced cell death – arbovirus, BSR cells, confirmation (AID 1250)

Q: With `COc1ccc(N=C2S/C(=C\c3ccc(OCC(=O)O)cc3)C(=O)N2CCc2c[nH]c3ccccc23)cc1` as the compound, how does the pIC50 read?
A: Its pIC50 is 4.81.

Q: With `Cn1c(-c2c(N)n(-c3ccccc3)c3nc4ccccc4nc23)nc2ccccc21` as the compound, how does the pIC50 read?
A: Its pIC50 is 5.62.

Q: How did the pIC50 turn out when `N#Cc1sc2nc(-c3cccs3)cc(-c3ccc(F)cc3)c2c1N` was run?
A: Its pIC50 is 5.64.

Q: With `O=C(O)c1ccc(N2C(=O)/C(=C/c3ccc(-c4ccc([N+](=O)[O-])cc4)o3)C=C2c2ccccc2)cc1` as the compound, how does the pIC50 read?
A: Its pIC50 is 5.27.

Q: With `CC(C)(C)n1nnnc1C(c1ccc(C(F)(F)F)cc1)N(Cc1ccc(F)cc1)Cc1ccco1` (stereo not drawn) as the compound, how does the pIC50 read?
A: The pIC50 was 4.69.

Q: With `O=C(Nc1nc(-c2ccc(Cl)cc2Cl)cs1)c1ccc(OCC2CCCO2)cc1` (stereo not drawn) as the compound, how does the pIC50 read?
A: The pIC50 was 5.29.

Q: How did the pIC50 turn out when `Cc1nn(-c2ccccc2)c(Cl)c1/C=N/Nc1ccc(Cl)c(C(=O)O)c1` was run?
A: The pIC50 was 4.84.

Q: With `COc1ccc(C2C=C(c3ccc(C)cc3)Nc3ncnn32)cc1` (stereo not drawn) as the compound, how does the pIC50 read?
A: Its pIC50 is 4.89.

— PubChem BioAssay AID1250 (SRMLSC, 2008)
